From ChEMBL document CHEMBL3046403, “Synthesis and anticancer activity of para-xylyl linked bis-benzimidazolium salts and respective Ag(I) N-heterocyclic carbene complexes” (Med Chem Res, 2013)
pIC50: −log10 of the molar value. The source made the active and inactive calls. No cut-off for these calls is given here.

Legend:
Assay type in all cases: functional, cell-based
[1] = system: HL-60; test: Anticancer activity against Homo sapiens (human) HL60 cells assessed as abnormal morphological changes after 48 hr by inverted phase contrast microscopic analysis
[2] = system: HCT-116; test: Anticancer activity against Homo sapiens (human) HCT116 cells assessed as abnormal morphological changes after 48 hr by inverted phase contrast microscopic analysis
[3] = system: HL-60; test: Anticancer activity against Homo sapiens (human) HL60 cells assessed as inhibition of cell proliferation after 72 hr by MTT assay; conditions: for pIC50: HL-60, 72 h
[4] = system: HCT-116; test: Anticancer activity against Homo sapiens (human) HCT116 cells assessed as inhibition of cell proliferation after 72 hr by MTT assay; conditions: for pIC50: HCT-116, 72 h
[5] = system: HCT-116; test: Anticancer activity against Homo sapiens (human) HCT116 cells assessed as cells with abnormal large number of vacuoles in cytoplasm after 48 hr by inverted phase contrast microscopic analysis
[6] = system: HCT-116; test: Anticancer activity against Homo sapiens (human) HCT116 cells assessed as reduction in cell number after 48 hr by inverted phase contrast microscopic analysis

## CCCn1c[n+](Cc2ccc(C[n+]3cn(CCC)c4ccccc43)cc2)c2ccccc21
[1]
  Activity: Active
[2]
  Activity: Active
[3]
  inhibition: Dose-dependent effect
  pIC50: 4.31
[4]
  inhibition: Dose-dependent effect
  pIC50: 5.85

## O=c1[nH]cc(F)c(=O)[nH]1 [FLUOROURACIL]
[3]
  inhibition: Dose-dependent effect
  pIC50: 5.27
[4]
  inhibition: Dose-dependent effect

## CCn1c[n+](Cc2ccc(C[n+]3cn(CC)c4ccccc43)cc2)c2ccccc21
[1]
  Activity: Active
[5]
  Activity: Active
[3]
  inhibition: Dose-dependent effect
  pIC50: 4.40
[4]
  inhibition: Dose-dependent effect
  pIC50: 6.52

## CCCCn1c[n+](Cc2ccc(C[n+]3cn(CCCC)c4ccccc43)cc2)c2ccccc21
[6]
  Activity: Active
[1]
  Activity: Active
[3]
  inhibition: Dose-dependent effect
  pIC50: 4.25
[4]
  inhibition: Dose-dependent effect
  pIC50: 4.73
